Test system: breast cancer cell line MX-1
Experiment: MX-1 cell line proliferation assay, Method A
Type: cell-based
Conditions: Homo sapiens, MX1; MX-1 cells, 96-well, 72 hours, Cell Titer Glo; read-out: Cellular proliferation: EC50 Method A
Protocol: The impact of compounds of the Examples on cancer cell proliferation was determined using the breast cancer cell line MX-1 (ATCC) in a 3-day proliferation assay and the data are reported in Table 1.
MX-1 cells were maintained in RPMI 1640 medium (Sigma) supplemented with 10% FBS at 37° C. and an atmosphere of 5% CO2. For compound testing, MX-1 cells were plated in 96-well black bottom plates at a density of 5000 cells/well in 90 μL of culture media and incubated at 370 overnight to allow cell adhesion and spreading. Compound dilution series were prepared in DMSO via a 3-fold serial dilution from 3 mM to 0.1 μM. The DMSO dilution series were then diluted 1:100 in phosphate buffered saline, and 10 μL of the resulted solution were added to the appropriate wells of the MX-1 cell plate. The final compound concentrations in the wells were 3, 1, 0.3, 0.1, 0.03, 0.01, 0.003, 0.001, 0.0003 and 0.0001 μM.
Luminescence readings from the Cell Titer Glo assay were normalized to the DMSO treated cells and analyzed using the GraphPad Prism software with sigmoidal curve fitting to obtain ECs50s. The minimum significant ratio (MSR) was determined to evaluate assay reproducibility (Eastwood et al., (2006) J Biomol Screen, 11: 253-261).

SMILES	EC50 [nM]
CN(C)CCCOc1ccc(CNc2cccc(Oc3ccc(S(C)(=O)=O)cc3-c3cn(C)c(=O)c4[nH]ccc34)c2)cc1 [Example 74, 4-{2-[3-({4-[3-(dimethylamino)propoxy]benzyl}amino)phenoxy]-5-(methylsulfonyl)phenyl}-6-methyl-1,6-dihydro-7H-pyrrolo[2,3-c]pyridin-7-one]	45.1
Cn1cc(-c2cc(S(C)(=O)=O)ccc2Oc2cccc(C(=O)N3CCN(C4CCCC4)CC3)c2)c2cc[nH]c2c1=O [Example 28, 4-[2-{3-[(4-cyclopentylpiperazin-1-yl)carbonyl]phenoxy}-5-(methylsulfonyl)phenyl]-6-methyl-1,6-dihydro-7H-pyrrolo[2,3-c]pyridin-7-one]	195
CCS(=O)(=O)c1ccc(Oc2ccc(Cl)cc2CCCN2CCOCC2)c(-c2cn(C)c(=O)c3[nH]ccc23)c1 [Example 83, 4-[2-{4-chloro-2-[3-(morpholin-4-yl)propyl]phenoxy}-5-(ethylsulfonyl)phenyl]-6-methyl-1,6-dihydro-7H-pyrrolo[2,3-c]pyridin-7-one]	89.9
CC(=O)c1ccc(S(=O)(=O)Nc2cccc(Oc3ccc(S(C)(=O)=O)cc3-c3cn(C)c(=O)c4[nH]ccc34)c2)cc1 [Example 44, 4-acetyl-N-{3-[2-(6-methyl-7-oxo-6,7-dihydro-1H-pyrrolo[2,3-c]pyridin-4-yl)-4-(methylsulfonyl)phenoxy]phenyl}benzenesulfonamide]	391
CC(C)c1ccc(S(=O)(=O)Nc2cccc(Oc3ccc(S(C)(=O)=O)cc3-c3cn(C)c(=O)c4[nH]ccc34)c2)cc1 [Example 46, N-{3-[2-(6-methyl-7-oxo-6,7-dihydro-1H-pyrrolo[2,3-c]pyridin-4-yl)-4-(methylsulfonyl)phenoxy]phenyl}-4-(propan-2-yl)benzenesulfonamide]	43.1
Cn1cc(-c2cc(S(C)(=O)=O)ccc2Oc2cccc(NCC3CCOC3)c2)c2cc[nH]c2c1=O (stereo not drawn) [Example 77, 6-methyl-4-[5-(methylsulfonyl)-2-{3-[(tetrahydrofuran-3-ylmethyl)amino]phenoxy}phenyl]-1,6-dihydro-7H-pyrrolo[2,3-c]pyridin-7-one]	69.2
Cn1cc(-c2cc(S(C)(=O)=O)ccc2Oc2cccc(NS(=O)(=O)c3ccc(F)cc3Cl)c2)c2cc[nH]c2c1=O [Example 58]	152
CCS(=O)(=O)c1ccc(OCC2CC2(F)F)c(-c2cn(C)c(=O)c3[nH]c(CN4CCN(c5cccnc5)CC4)cc23)c1 (stereo not drawn) [Example 20, 4-{2-[(2,2-difluorocyclopropyl)methoxy]-5-(ethylsulfonyl)phenyl}-6-methyl-2-{[4-(pyridin-3-yl)piperazin-1-yl]methyl}-1,6-dihydro-7H-pyrrolo[2,3-c]pyridin-7-one]	101
CCS(=O)(=O)Nc1cc(-c2cn(C)c(=O)c3[nH]ccc23)c(Oc2ccc(F)cc2F)cc1CO [Example 6, N-[4-(2,4-difluorophenoxy)-2-(hydroxymethyl)-5-(6-methyl-7-oxo-6,7-dihydro-1H-pyrrolo[2,3-c]pyridin-4-yl)phenyl]ethanesulfonamide]	29.1
Cn1cc(-c2cc(S(C)(=O)=O)ccc2Oc2cccc(C(=O)NC[C@H]3CCCO3)c2)c2cc[nH]c2c1=O [Example 34, 3-[2-(6-methyl-7-oxo-6,7-dihydro-1H-pyrrolo[2,3-c]pyridin-4-yl)-4-(methylsulfonyl)phenoxy]-N-[(2R)-tetrahydrofuran-2-ylmethyl]benzamide]	155
CCS(=O)(=O)Nc1cc(-c2cn(C)c(=O)c3[nH]ccc23)c(Oc2ccc(F)cc2F)cc1C(N)=O [Example 8, 5-(2,4-difluorophenoxy)-2-[(ethylsulfonyl)amino]-4-(6-methyl-7-oxo-6,7-dihydro-1H-pyrrolo[2,3-c]pyridin-4-yl)benzamide]	44.9
Cn1cc(-c2cc(S(C)(=O)=O)ccc2N[C@H]2CC[C@H](NCc3ccc(F)cc3F)CC2)c2cc[nH]c2c1=O [Example 109, 4-[2-({trans-4-[(2,4-difluorobenzyl)amino]cyclohexyl}amino)-5-(methylsulfonyl)phenyl]-6-methyl-1,6-dihydro-7H-pyrrolo[2,3-c]pyridin-7-one]	18.1
Cn1cc(-c2cc(S(C)(=O)=O)ccc2Oc2ccc(F)cc2F)c2cc(CN3CCN(c4nccs4)CC3)[nH]c2c1=O [Example 114, 4-[2-(2,4-difluorophenoxy)-5-(methylsulfonyl)phenyl]-6-methyl-2-{[4-(1,3-thiazol-2-yl)piperazin-1-yl]methyl}-1,6-dihydro-7H-pyrrolo[2,3-c]pyridin-7-one]	762
CCS(=O)(=O)Nc1cc(-c2cn(C)c(=O)c3[nH]ccc23)c(Oc2ccc(F)cc2F)cc1CNCCO [Example 13, N-[4-(2,4-difluorophenoxy)-2-{[(2-hydroxyethyl)amino]methyl}-5-(6-methyl-7-oxo-6,7-dihydro-1H-pyrrolo[2,3-c]pyridin-4-yl)phenyl]ethanesulfonamide]	307
Cn1cc(-c2cc(S(C)(=O)=O)ccc2Oc2ccc(F)cc2F)c2cc(CN3CCC(N4CCOCC4)CC3)[nH]c2c1=O [Example 130, 4-[2-(2,4-difluorophenoxy)-5-(methylsulfonyl)phenyl]-6-methyl-2-{[4-(morpholin-4-yl)piperidin-1-yl]methyl}-1,6-dihydro-7H-pyrrolo[2,3-c]pyridin-7-one]	337
CCS(=O)(=O)Nc1cc(-c2cn(C)c(=O)c3[nH]ccc23)c(Oc2ccc(F)cc2F)cc1CN1CCCC1c1ccccc1 (stereo not drawn) [Example 14, N-{4-(2,4-difluorophenoxy)-5-(6-methyl-7-oxo-6,7-dihydro-1H-pyrrolo[2,3-c]pyridin-4-yl)-2-[(2-phenylpyrrolidin-1-yl)methyl]phenyl}ethanesulfonamide]	184
Cn1cc(-c2cc(S(C)(=O)=O)ccc2Oc2ccc(F)cc2F)c2cc(CN3CCN(C4CC4)CC3)[nH]c2c1=O [Example 115, 2-[(4-cyclopropylpiperazin-1-yl)methyl]-4-[2-(2,4-difluorophenoxy)-5-(methylsulfonyl)phenyl]-6-methyl-1,6-dihydro-7H-pyrrolo[2,3-c]pyridin-7-one]	411
CCS(=O)(=O)c1ccc(Oc2ccc(F)cc2F)c(-c2cn(C)c(=O)c3[nH]c(-c4ccnn4-c4ccccc4)cc23)c1 [Example 117, 4-[2-(2,4-difluorophenoxy)-5-(ethylsulfonyl)phenyl]-6-methyl-2-(1-phenyl-1H-pyrazol-5-yl)-1,6-dihydro-7H-pyrrolo[2,3-c]pyridin-7-one]	249
Cn1cc(-c2cc(S(C)(=O)=O)ccc2N[C@H]2CC[C@H](NCc3ccc(Cl)cc3)CC2)c2cc[nH]c2c1=O [Example 113, 4-[2-({trans-4-[(4-chlorobenzyl)amino]cyclohexyl}amino)-5-(methylsulfonyl)phenyl]-6-methyl-1,6-dihydro-7H-pyrrolo[2,3-c]pyridin-7-one]	19.5
CCS(=O)(=O)Nc1ccc(Oc2ccc(F)cc2F)c(-c2cn(C)c(=O)c3[nH]c(C#CCOC)cc23)c1 [Example 163, N-{4-(2,4-difluorophenoxy)-3-[2-(3-methoxyprop-1-yn-1-yl)-6-methyl-7-oxo-6,7-dihydro-1H-pyrrolo[2,3-c]pyridin-4-yl]phenyl}ethanesulfonamide]	47.7
Cn1cc(-c2cc(S(C)(=O)=O)ccc2Oc2cccc(NS(=O)(=O)c3cccc(C#N)c3)c2)c2cc[nH]c2c1=O [Example 57, 3-cyano-N-{3-[2-(6-methyl-7-oxo-6,7-dihydro-1H-pyrrolo[2,3-c]pyridin-4-yl)-4-(methylsulfonyl)phenoxy]phenyl}benzenesulfonamide]	> 1000

— patent US10131657B2, “Bromodomain inhibitors” (AbbVie Inc., priority 2013, dated 2018)
